Among the data in PubChem BioAssay (NCI) are TGI and GI50 values, retold here.

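Dose response: 5 concentrations. Exposure: 48 h. Format: 96-well plates. Endpoint: linear interpolation; highest concentration if not reached. GI50 = concentration required for 50% inhibition of growth. TGI: total growth inhibition.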

Test systems include CCRF-CEM leukemia; K-562 leukemia; SK-MEL-5 melanoma; SR leukemia; SW-620 colon; UACC-257 melanoma; HCC-2998 colon; SF-539 CNS.
Holding throughout (test): growth of human tumour cells (NCI), 48 h

Consider `O=S(=O)(c1ccc(Br)cc1)N1CCN(S(=O)(=O)c2ccc(Br)cc2)CC1`, for which the TGI in the experiment with CCRF-CEM leukemia, with K-562 leukemia, in the experiment on SK-MEL-5 melanoma, with SR leukemia, in the experiment on SW-620 colon and in the experiment on UACC-257 melanoma was greater than 100 µM throughout.

With `CCC(C)[C@H](NC(=O)NC(=O)NC(=O)CI)C(=O)OC` (stereo not given in full), the GI50 is 13.7 µM in the experiment on HCC-2998 colon; 2.03 µM with K-562 leukemia; 10.3 µM with SF-539 CNS; 16.7 µM with SK-MEL-5 melanoma; 1370 nM in the experiment on SR leukemia; 1.86 µM in the experiment on SW-620 colon. Further, the GI50 in the experiment with UACC-257 melanoma is 12.6 µM. Also, the TGI in the experiment on HCC-2998 colon was 26.9 µM; in the experiment on K-562 leukemia, 4.48 µM; in the experiment with SF-539 CNS it was 22.8 µM; in the experiment with SK-MEL-5 melanoma, 30.5 µM; in the experiment on SR leukemia, 4.15 µM; in the experiment on SW-620 colon, 3.61 µM. This compound yielded a TGI in the experiment with UACC-257 melanoma of 25.8 µM.

Consider `COc1ccc(-c2nc(Nc3ccc(-c4nc5ccccc5[nH]4)cc3)nc(N3CCOCC3)n2)cc1`, for which the GI50 in the experiment on CCRF-CEM leukemia was 3.11 µM; in the experiment on HCC-2998 colon, 3.09 µM; in the experiment on SF-539 CNS, 1.63 µM; in the experiment on SK-MEL-5 melanoma it was 1.79 µM; in the experiment on SW-620 colon, 2.19 µM. In addition, the TGI is greater than 100 µM in the experiment with CCRF-CEM leukemia; greater than 100 µM in the experiment with HCC-2998 colon; 3.72 µM in the experiment with SF-539 CNS; 3.36 µM in the experiment with SK-MEL-5 melanoma; 4.8 µM with SW-620 colon.

Regarding `CC1SC2(CCC(c3ccccc3)CC2)N(NC(=O)c2[nH]c3ccc(F)cc3c2-c2ccccc2)C1=O` (stereo not given), the GI50 was 1.59 µM in the experiment with CCRF-CEM leukemia; 2.51 µM in the experiment on HCC-2998 colon; 2.11 µM with K-562 leukemia; 20 µM in the experiment on SF-539 CNS; 3.85 µM with SK-MEL-5 melanoma; 6.57 µM in the experiment with SW-620 colon. Also, the GI50 in the experiment on UACC-257 melanoma is 19 µM. Further, the TGI in the experiment on CCRF-CEM leukemia is 13.4 µM; in the experiment on HCC-2998 colon, 7.05 µM; in the experiment on K-562 leukemia, 6.1 µM; with SF-539 CNS, 49.3 µM; in the experiment with SK-MEL-5 melanoma, 21.6 µM; in the experiment on SW-620 colon, greater than 100 µM. Also, in the experiment on UACC-257 melanoma, the TGI worked out at 53.9 µM.

Take `c1ccc(CN2CCC3(CC2)SSC2(CCN(Cc4ccccc4)CC2)SS3)cc1`: the TGI in the experiment with HCC-2998 colon, in the experiment with K-562 leukemia, in the experiment with SF-539 CNS, in the experiment with SK-MEL-5 melanoma, in the experiment with SR leukemia and with SW-620 colon was greater than 100 µM in each case. The same compound gave a TGI in the experiment on UACC-257 melanoma greater than 100 µM.

For `CCOC(=O)c1ccc2c(c1)nc(/C=C/c1ccc(Cl)cc1)n2-c1cc(C(C)(C)C)[nH]n1`, the GI50 was 7.54 µM in the experiment with CCRF-CEM leukemia; greater than 100 µM with HCC-2998 colon; 4.41 µM in the experiment with K-562 leukemia; 2.09 µM in the experiment on SF-539 CNS; 3.63 µM in the experiment on SK-MEL-5 melanoma; 12.8 µM with SW-620 colon. Further, the GI50 in the experiment on UACC-257 melanoma was 6.84 µM. In addition, the TGI is greater than 100 µM in the experiment on CCRF-CEM leukemia; greater than 100 µM with HCC-2998 colon; greater than 100 µM in the experiment with K-562 leukemia; 5.09 µM in the experiment on SF-539 CNS; 28.3 µM in the experiment with SK-MEL-5 melanoma; greater than 100 µM with SW-620 colon. For the same compound, the TGI in the experiment with UACC-257 melanoma was greater than 100 µM.

As to `Cn1cc(-c2csc(-c3cn(CCCCN4CCCCC4)c4ccc(F)cc34)n2)c2cccnc21`, the GI50 in the experiment on HCC-2998 colon was 1.59 µM; in the experiment on SW-620 colon, 1.83 µM; with UACC-257 melanoma, 1.7 µM. Moreover, the TGI was 3.08 µM in the experiment on HCC-2998 colon, 3.44 µM in the experiment on SW-620 colon and 3.25 µM in the experiment with UACC-257 melanoma.

Consider `O=[N+]([O-])c1ccc(Sc2nc(Cl)nc(NC3CCCC3)n2)cc1`, for which the GI50 in the experiment with HCC-2998 colon was greater than 10 µM; with K-562 leukemia it was 5.89 µM; in the experiment with SF-539 CNS, greater than 10 µM; in the experiment with SK-MEL-5 melanoma, 5.32 µM; in the experiment with SR leukemia it was greater than 10000 nM; with SW-620 colon, 4.78 µM. Besides, the TGI in the experiment on HCC-2998 colon, in the experiment with K-562 leukemia, in the experiment with SF-539 CNS, in the experiment with SK-MEL-5 melanoma, with SR leukemia and in the experiment with SW-620 colon was greater than 10 µM in each case.

On to `CC(C)=CCC1=C(OCC(=O)O)C(=O)c2ccccc2C1=O`, for which the TGI was 54.7 µM in the experiment with CCRF-CEM leukemia; greater than 100 µM in the experiment on K-562 leukemia; 56.6 µM in the experiment with SF-539 CNS; 41.4 µM in the experiment on SK-MEL-5 melanoma; greater than 100 µM in the experiment with SR leukemia; 76.6 µM in the experiment on SW-620 colon. This compound displayed a TGI in the experiment on UACC-257 melanoma of 76 µM.

Turning to `C[N+](C)(CCCCCC[N+](C)(C)CCCN1C(=O)c2cc3ccccc3cc2C1=O)CCCN1C(=O)c2cc3ccccc3cc2C1=O`, the GI50 in the experiment on CCRF-CEM leukemia, in the experiment on HCC-2998 colon, in the experiment on K-562 leukemia, in the experiment on SF-539 CNS, in the experiment with SK-MEL-5 melanoma and with SW-620 colon was greater than 37.5 µM each time. For the same compound, the GI50 in the experiment with UACC-257 melanoma is greater than 37.5 µM. In addition, the TGI in the experiment on CCRF-CEM leukemia, in the experiment on HCC-2998 colon, in the experiment with K-562 leukemia, in the experiment on SF-539 CNS, in the experiment with SK-MEL-5 melanoma and in the experiment with SW-620 colon was greater than 37.5 µM in each case. Moreover, the TGI with UACC-257 melanoma was greater than 37.5 µM.

Consider `O=S1(=O)NC2CCC3NS(=O)(=O)NC4CCC(N1)N4S(=O)(=O)N23` (stereo not given), for which the TGI in the experiment on HCC-2998 colon, with K-562 leukemia, with SF-539 CNS, in the experiment with SK-MEL-5 melanoma, in the experiment with SR leukemia and with SW-620 colon was greater than 100 µM in each case. In the experiment on UACC-257 melanoma, this compound returned a TGI greater than 100 µM.

Regarding `COC(=O)c1ccc2c(c1)C(=O)c1c-2n(C)c(=O)c2cc(OC)c(OC)cc12`, the GI50 with CCRF-CEM leukemia, in the experiment with HCC-2998 colon, in the experiment with K-562 leukemia, with SF-539 CNS, with SK-MEL-5 melanoma and in the experiment on SW-620 colon was greater than 50 µM each time. Also, the TGI in the experiment with CCRF-CEM leukemia, in the experiment on HCC-2998 colon, in the experiment with K-562 leukemia, with SF-539 CNS, in the experiment on SK-MEL-5 melanoma and with SW-620 colon was greater than 50 µM in each case.

Take `CCC(CCC(C)C1CCC2C3CC=C4CC(OC5OC(CO)C(O)C(O)C5O)CCC4(C)C3CCC12C)C(C)C` (stereo not given): the TGI in the experiment with CCRF-CEM leukemia, with HCC-2998 colon, with SF-539 CNS, in the experiment with SK-MEL-5 melanoma, in the experiment on SR leukemia and with SW-620 colon was greater than 100 µM in each case. This compound also showed a TGI in the experiment with UACC-257 melanoma greater than 100 µM.
